Laboratory results taken from patent US9340590B2 (priority 2011, dated 2016).
Like-named read-outs stand apart in the source and are kept apart here. Positions of bridges follow the written chain, without caps; N, C: chain ends. Residues, ends and D or L forms follow the SMILES beside them.

Columns and labels:
Assay in all cases: cell-based
hNav1.5 = hNav1.5 (Homo sapiens, UniProt Q14524); settings: IonWorks Quattro, read-out: IWQ Use Nav1.5
hNav1.3 = hNav1.3 (Homo sapiens, UniProt Q9NY46); settings: IonWorks Quattro, read-out: IWQ Use Nav1.3
hNav1.7 = hNav1.7 (Homo sapiens, UniProt Q15858); type: cell-based
[1] = IonWorks Quattro, use-dependent block, hNav1.7, read-out: IWQ Use Nav1.7
[2] = use-dependent protocol, hNav1.5
[3] = use-dependent protocol, hNav1.3
[4] = IonWorks Quattro, use-dependent protocol, hNav1.7, read-out: IWQ Use Nav1.7

Chain of hNav1.7 (Q15858 whole entry, looked up): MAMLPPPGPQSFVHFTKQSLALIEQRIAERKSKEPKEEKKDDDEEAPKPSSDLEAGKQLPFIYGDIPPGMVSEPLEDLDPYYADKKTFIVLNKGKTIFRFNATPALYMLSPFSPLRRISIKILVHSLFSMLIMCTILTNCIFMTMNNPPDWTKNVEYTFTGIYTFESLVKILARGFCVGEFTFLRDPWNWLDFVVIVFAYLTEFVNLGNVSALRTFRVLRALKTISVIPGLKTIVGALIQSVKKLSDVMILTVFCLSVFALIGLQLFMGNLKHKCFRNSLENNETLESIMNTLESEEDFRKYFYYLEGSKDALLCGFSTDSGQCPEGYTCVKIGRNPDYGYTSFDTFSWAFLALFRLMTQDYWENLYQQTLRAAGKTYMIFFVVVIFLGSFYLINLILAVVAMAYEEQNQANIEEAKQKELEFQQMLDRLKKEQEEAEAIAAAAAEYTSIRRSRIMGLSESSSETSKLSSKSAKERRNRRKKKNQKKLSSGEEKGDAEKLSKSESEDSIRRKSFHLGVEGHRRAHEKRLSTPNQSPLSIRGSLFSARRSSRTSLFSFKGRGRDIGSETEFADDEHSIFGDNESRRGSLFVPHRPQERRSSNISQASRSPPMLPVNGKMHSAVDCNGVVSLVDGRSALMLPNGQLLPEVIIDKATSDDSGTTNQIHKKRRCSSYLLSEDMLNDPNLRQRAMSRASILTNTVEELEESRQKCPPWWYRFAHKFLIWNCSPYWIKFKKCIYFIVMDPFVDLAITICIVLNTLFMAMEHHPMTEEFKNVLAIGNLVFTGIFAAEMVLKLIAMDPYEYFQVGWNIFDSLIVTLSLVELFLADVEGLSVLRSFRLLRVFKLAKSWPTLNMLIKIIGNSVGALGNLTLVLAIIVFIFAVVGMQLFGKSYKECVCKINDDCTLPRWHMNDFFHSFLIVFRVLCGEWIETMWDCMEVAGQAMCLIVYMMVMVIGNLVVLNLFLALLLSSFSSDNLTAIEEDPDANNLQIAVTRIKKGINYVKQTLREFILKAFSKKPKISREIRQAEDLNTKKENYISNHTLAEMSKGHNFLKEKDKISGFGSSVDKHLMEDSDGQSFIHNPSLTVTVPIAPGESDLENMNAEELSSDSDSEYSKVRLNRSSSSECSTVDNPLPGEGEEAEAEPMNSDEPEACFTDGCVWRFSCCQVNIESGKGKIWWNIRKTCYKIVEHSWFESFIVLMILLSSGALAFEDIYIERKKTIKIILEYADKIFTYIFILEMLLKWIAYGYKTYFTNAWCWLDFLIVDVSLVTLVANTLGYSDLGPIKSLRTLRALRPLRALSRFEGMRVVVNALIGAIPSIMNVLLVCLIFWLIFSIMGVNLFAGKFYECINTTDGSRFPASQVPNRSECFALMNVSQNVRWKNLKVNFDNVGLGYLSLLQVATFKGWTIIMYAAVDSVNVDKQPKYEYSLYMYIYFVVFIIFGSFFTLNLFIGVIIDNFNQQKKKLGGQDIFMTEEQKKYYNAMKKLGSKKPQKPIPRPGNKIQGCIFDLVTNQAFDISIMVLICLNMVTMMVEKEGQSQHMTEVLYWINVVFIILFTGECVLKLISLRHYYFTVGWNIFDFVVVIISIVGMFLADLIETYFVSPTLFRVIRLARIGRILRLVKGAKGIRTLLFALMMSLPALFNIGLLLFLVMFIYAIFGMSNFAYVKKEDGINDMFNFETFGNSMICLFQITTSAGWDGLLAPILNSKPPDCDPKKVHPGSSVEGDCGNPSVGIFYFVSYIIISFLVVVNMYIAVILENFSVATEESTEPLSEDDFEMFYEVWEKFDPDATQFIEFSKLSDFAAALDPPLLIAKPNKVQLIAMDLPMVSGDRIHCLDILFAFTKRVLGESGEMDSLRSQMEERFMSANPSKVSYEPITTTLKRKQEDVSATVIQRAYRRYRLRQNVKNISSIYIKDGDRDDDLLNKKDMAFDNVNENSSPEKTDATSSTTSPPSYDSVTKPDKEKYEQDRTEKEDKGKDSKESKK
Chain of hNav1.3 (Q9NY46 whole entry, looked up): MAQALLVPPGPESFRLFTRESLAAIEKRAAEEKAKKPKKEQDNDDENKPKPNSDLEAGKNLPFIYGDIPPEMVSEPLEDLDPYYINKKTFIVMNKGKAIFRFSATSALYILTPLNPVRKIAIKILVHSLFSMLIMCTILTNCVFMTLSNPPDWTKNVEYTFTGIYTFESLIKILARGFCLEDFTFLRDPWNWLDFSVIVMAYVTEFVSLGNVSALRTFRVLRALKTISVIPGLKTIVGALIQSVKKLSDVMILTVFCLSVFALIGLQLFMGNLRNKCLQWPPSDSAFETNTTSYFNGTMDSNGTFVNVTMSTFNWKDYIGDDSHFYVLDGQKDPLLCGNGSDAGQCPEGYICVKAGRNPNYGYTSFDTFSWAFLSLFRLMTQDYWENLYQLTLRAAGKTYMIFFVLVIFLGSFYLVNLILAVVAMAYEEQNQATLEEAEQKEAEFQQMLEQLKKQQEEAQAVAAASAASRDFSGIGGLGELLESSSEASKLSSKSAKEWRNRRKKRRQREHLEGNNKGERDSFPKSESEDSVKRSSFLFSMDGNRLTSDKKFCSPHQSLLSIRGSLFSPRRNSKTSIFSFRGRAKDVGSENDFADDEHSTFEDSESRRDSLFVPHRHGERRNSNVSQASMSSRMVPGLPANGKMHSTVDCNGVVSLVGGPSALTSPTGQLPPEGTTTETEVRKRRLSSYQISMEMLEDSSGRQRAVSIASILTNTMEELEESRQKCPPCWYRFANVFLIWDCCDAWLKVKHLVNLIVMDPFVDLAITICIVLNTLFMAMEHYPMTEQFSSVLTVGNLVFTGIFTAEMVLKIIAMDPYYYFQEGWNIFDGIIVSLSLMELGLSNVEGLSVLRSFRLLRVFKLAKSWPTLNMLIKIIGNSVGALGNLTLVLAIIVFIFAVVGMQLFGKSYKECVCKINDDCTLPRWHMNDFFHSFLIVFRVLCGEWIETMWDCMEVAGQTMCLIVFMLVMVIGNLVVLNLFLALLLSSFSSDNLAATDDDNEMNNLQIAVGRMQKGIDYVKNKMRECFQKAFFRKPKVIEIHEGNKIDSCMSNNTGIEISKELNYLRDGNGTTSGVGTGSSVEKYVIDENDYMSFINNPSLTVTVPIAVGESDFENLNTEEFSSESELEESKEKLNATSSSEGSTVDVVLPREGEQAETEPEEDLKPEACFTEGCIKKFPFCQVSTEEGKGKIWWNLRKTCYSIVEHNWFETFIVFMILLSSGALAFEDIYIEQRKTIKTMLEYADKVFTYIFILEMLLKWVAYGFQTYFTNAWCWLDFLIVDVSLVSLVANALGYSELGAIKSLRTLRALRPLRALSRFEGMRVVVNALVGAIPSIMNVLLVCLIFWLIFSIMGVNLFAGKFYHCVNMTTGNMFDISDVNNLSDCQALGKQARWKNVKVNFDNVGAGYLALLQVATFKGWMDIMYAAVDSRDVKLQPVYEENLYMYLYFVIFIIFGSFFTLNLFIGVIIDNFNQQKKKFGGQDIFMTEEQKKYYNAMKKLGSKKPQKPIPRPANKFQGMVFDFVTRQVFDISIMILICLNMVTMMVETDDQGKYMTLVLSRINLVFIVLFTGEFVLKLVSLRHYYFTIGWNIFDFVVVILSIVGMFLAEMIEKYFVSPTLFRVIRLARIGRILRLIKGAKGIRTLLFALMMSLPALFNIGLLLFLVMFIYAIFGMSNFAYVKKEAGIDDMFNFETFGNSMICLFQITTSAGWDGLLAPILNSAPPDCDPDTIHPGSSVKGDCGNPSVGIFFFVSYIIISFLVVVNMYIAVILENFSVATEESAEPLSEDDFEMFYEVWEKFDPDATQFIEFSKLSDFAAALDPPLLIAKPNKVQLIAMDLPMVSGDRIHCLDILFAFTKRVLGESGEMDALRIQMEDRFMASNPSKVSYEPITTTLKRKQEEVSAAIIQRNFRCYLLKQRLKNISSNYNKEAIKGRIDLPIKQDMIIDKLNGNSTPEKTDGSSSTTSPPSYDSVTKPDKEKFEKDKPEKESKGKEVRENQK

Row | SMILES | IC50 (hNav1.5; use-dependent block, hNav1.5) | IC50 (hNav1.3; use-dependent block, hNav1.3) | IC50 (hNav1.7; [1]) | further results
1 | CC[C@H](C)[C@@H]1NC(=O)[C@@H]2CSSC[C@@H]3NC(=O)[C@H](C(C)C)NC(=O)[C@H](CC(C)C)NC(=O)[C@H](CC(N)=O)NC(=O)[C@@H]4CCCN4C(=O)[C@H](CCCNC(=N)N)NC(=O)[C@H](CSSC[C@H](NC(=O)[C@@H](N)CC(=O)O)C(=O)N[C@@H](CC(C)C)C(=O)NCC(=O)N[C@@H](C)C(=O)N[C@@H](Cc4ccccc4)C(=O)N[C@@H](CCCNC(=N)N)C(=O)N[C@@H](CCCCN)C(=O)N2)NC(=O)[C@H](CSSC[C@@H](C(=O)N[C@@H](CCCCN)C(=O)N[C@@H](Cc2ccc(O)cc2)C(=O)N[C@H](C(=O)N[C@@H](Cc2ccccc2)C(=O)O)C(C)C)NC(=O)[C@H](Cc2c[nH]c4ccccc24)NC(=O)[C@H](CCSC)NC(=O)[C@H](Cc2c[nH]cn2)NC(=O)[C@H]([C@@H](C)O)NC(=O)[C@H](CCCNC(=N)N)NC(=O)[C@H](CO)NC3=O)NC(=O)[C@H](CCCCN)NC(=O)[C@H](CC(=O)O)NC(=O)[C@H](CC(N)=O)NC(=O)[C@H](CC(=O)O)NC(=O)[C@@H]2CCCN2C1=O [compound 831] (H-DCLGAFRKCIPDNDKCCRPNLVCSRTHMWCKYVF-OH; disulfide 2-17, 9-23, 16-30) | > 5 µM | 1.6 µM | > 5 µM | 
2 | CC[C@H](C)[C@@H]1NC(=O)[C@@H]2CSSC[C@@H]3NC(=O)[C@H](C(C)C)NC(=O)[C@H](CC(C)C)NC(=O)[C@H](CC(N)=O)NC(=O)[C@@H]4CCCN4C(=O)[C@H](CCCNC(=N)N)NC(=O)[C@H](CSSC[C@H](NC(=O)[C@@H](N)CC(=O)O)C(=O)N[C@@H](CC(C)C)C(=O)NCC(=O)N[C@@H](C4CCCCC4)C(=O)N[C@@H](CC(C)C)C(=O)N[C@@H](CCCNC(=N)N)C(=O)N[C@@H](CCCCN)C(=O)N2)NC(=O)[C@H](CSSC[C@@H](C(=O)N[C@@H](CCCCN)C(=O)N[C@@H](Cc2ccc(O)cc2)C(=O)N[C@H](C(=O)N[C@@H](Cc2ccccc2)C(N)=O)C(C)C)NC(=O)[C@H](Cc2c[nH]c4ccccc24)NC(=O)[C@H](CCCCN)NC(=O)[C@H](Cc2c[nH]cn2)NC(=O)[C@H]([C@@H](C)O)NC(=O)[C@H](CCCNC(=N)N)NC(=O)[C@H](CO)NC3=O)NC(=O)[C@H](CCCCN)NC(=O)[C@H](CC(=O)O)NC(=O)[C@H](CC(N)=O)NC(=O)[C@H](CC(=O)O)NC(=O)[C@@H]2CCCN2C1=O [compound 664] |  |  |  | IC50 (hNav1.5; [2]): > 5 µM; IC50 (hNav1.3; [3]): 0.11 µM; IC50 (hNav1.7; [4]): 0.019 µM
3 | CC[C@H](C)[C@@H]1NC(=O)[C@@H]2CSSC[C@@H]3NC(=O)[C@H](C(C)C)NC(=O)[C@H](CC(C)C)NC(=O)[C@H](CC(N)=O)NC(=O)[C@@H]4CCCN4C(=O)[C@H](CCCNC(=N)N)NC(=O)[C@H](CSSC[C@H](NC(=O)[C@@H](N)CC(=O)O)C(=O)N[C@@H](CC(C)C)C(=O)NCC(=O)N[C@@H](C)C(=O)N[C@@H](Cc4ccccc4)C(=O)N[C@@H](CCCNC(=N)N)C(=O)N[C@@H](CCCCN)C(=O)N2)NC(=O)[C@H](CSSC[C@@H](C(=O)N[C@@H](CCCCN)C(=O)N[C@@H](Cc2ccc(O)cc2)C(=O)N[C@H](C(=O)N[C@@H](Cc2ccccc2)C(=O)O)C(C)C)NC(=O)[C@H](Cc2c[nH]c4ccccc24)NC(=O)[C@H](CCCNC(=N)N)NC(=O)[C@H](Cc2c[nH]cn2)NC(=O)[C@H]([C@@H](C)O)NC(=O)[C@H](CCCNC(=N)N)NC(=O)[C@H](CO)NC3=O)NC(=O)[C@H](CCCCN)NC(=O)[C@H](CC(=O)O)NC(=O)[C@H](Cc2ccccc2)NC(=O)[C@H](CC(=O)O)NC(=O)[C@@H]2CCCN2C1=O [compound 839] | > 5 µM | 1.2 µM | > 5 µM | 
4 | CC[C@H](C)[C@@H]1NC(=O)[C@@H]2CSSC[C@@H]3NC(=O)[C@H](C(C)C)NC(=O)[C@H](CC(C)C)NC(=O)[C@H](CC(N)=O)NC(=O)[C@@H]4CCCN4C(=O)[C@H](CCCNC(=N)N)NC(=O)[C@H](CSSC[C@H](NC(=O)[C@@H](N)CC(=O)O)C(=O)N[C@@H](CC(C)C)C(=O)NCC(=O)N[C@@H](C)C(=O)N[C@@H](Cc4ccccc4)C(=O)N[C@@H](CCCNC(=N)N)C(=O)N[C@@H](CCCCN)C(=O)N2)NC(=O)[C@H](CSSC[C@@H](C(=O)N[C@@H](CCCCN)C(=O)N[C@@H](Cc2ccc(O)cc2)C(=O)N[C@H](C(=O)N[C@@H](Cc2ccccc2)C(=O)O)C(C)C)NC(=O)[C@H](Cc2c[nH]c4ccccc24)NC(=O)[C@H](CCCNC(=N)N)NC(=O)[C@H](Cc2c[nH]cn2)NC(=O)[C@H]([C@@H](C)O)NC(=O)[C@H](CCCNC(=N)N)NC(=O)[C@H](CO)NC3=O)NC(=O)[C@H](CCCCN)NC(=O)[C@H](CC(=O)O)NC(=O)[C@H](CC(C)C)NC(=O)[C@H](CC(=O)O)NC(=O)[C@@H]2CCCN2C1=O [compound 844] | > 5 µM | 4.5 µM | 4.5 µM | 
5 | CC[C@H](C)[C@@H]1NC(=O)[C@@H]2CSSC[C@@H]3NC(=O)[C@H](C(C)C)NC(=O)[C@H](CC(C)C)NC(=O)[C@H](CC(N)=O)NC(=O)[C@@H]4CCCN4C(=O)[C@H](CCCNC(=N)N)NC(=O)[C@H](CSSC[C@H](NC(=O)[C@H](CC(=O)O)NC(=O)[C@H](CO)NC(=O)CN)C(=O)N[C@@H](CC(C)C)C(=O)NCC(=O)N[C@@H](C)C(=O)N[C@@H](Cc4ccccc4)C(=O)N[C@@H](CCCNC(=N)N)C(=O)N[C@@H](CCCCN)C(=O)N2)NC(=O)[C@H](CSSC[C@@H](C(=O)N[C@@H](CCCCN)C(=O)N[C@@H](Cc2ccc(O)cc2)C(=O)N[C@H](C(=O)N[C@@H](Cc2ccccc2)C(N)=O)C(C)C)NC(=O)[C@H](Cc2c[nH]c4ccccc24)NC(=O)[C@H](CCCNC(=N)N)NC(=O)[C@H](Cc2c[nH]cn2)NC(=O)[C@H]([C@@H](C)O)NC(=O)[C@H](CCCNC(=N)N)NC(=O)[C@H](CO)NC3=O)NC(=O)[C@H](CCCCN)NC(=O)[C@H](CC(=O)O)NC(=O)[C@H](CC(N)=O)NC(=O)[C@H](CC(=O)O)NC(=O)[C@@H]2CCCN2C1=O [compound 811] (H-GSDCLGAFRKCIPDNDKCCRPNLVCSRTHRWCKYVF-NH2; disulfide 4-19, 11-25, 18-32) | > 5 µM | 0.3 µM | 0.3 µM | 
6 | CC[C@H](C)[C@@H]1NC(=O)[C@@H]2CSSC[C@@H]3NC(=O)[C@H](C(C)C)NC(=O)[C@H](CC(C)C)NC(=O)[C@H](CC(N)=O)NC(=O)[C@@H]4CCCN4C(=O)[C@H](CCCNC(=N)N)NC(=O)[C@H](CSSC[C@H](NC(=O)[C@@H](N)CC(=O)O)C(=O)N[C@@H](CC(C)C)C(=O)NCC(=O)N[C@@H](C)C(=O)N[C@@H](Cc4ccc(O)cc4)C(=O)N[C@@H](CCCNC(=N)N)C(=O)N[C@@H](CCCCN)C(=O)N2)NC(=O)[C@H](CSSC[C@@H](C(=O)N[C@@H](CCCCN)C(=O)N[C@@H](Cc2ccc(O)cc2)C(=O)N[C@H](C(=O)N[C@@H](Cc2ccccc2)C(N)=O)C(C)C)NC(=O)[C@H](Cc2c[nH]c4ccccc24)NC(=O)[C@H](CCCCN)NC(=O)[C@H](Cc2c[nH]cn2)NC(=O)[C@H]([C@@H](C)O)NC(=O)[C@H](CCCNC(=N)N)NC(=O)[C@H](CO)NC3=O)NC(=O)[C@H](CCCCN)NC(=O)[C@H](CC(=O)O)NC(=O)[C@H](CC(N)=O)NC(=O)[C@H](CC(=O)O)NC(=O)[C@@H]2CCCN2C1=O [compound 698] (H-DCLGAYRKCIPDNDKCCRPNLVCSRTHKWCKYVF-NH2; disulfide 2-17, 9-23, 16-30) |  |  |  | IC50 (hNav1.5; [2]): > 5 µM; IC50 (hNav1.3; [3]): > 5 µM; IC50 (hNav1.7; [4]): 4.4 µM
7 | CC[C@H](C)[C@@H]1NC(=O)[C@@H]2CSSC[C@@H]3NC(=O)[C@H](C(C)C)NC(=O)[C@H](CC(C)C)NC(=O)[C@H](CC(N)=O)NC(=O)[C@@H]4CCCN4C(=O)[C@H](CCCNC(=N)N)NC(=O)[C@H](CSSC[C@H](NC(=O)[C@@H](N)CC(=O)O)C(=O)N[C@@H](CC(C)C)C(=O)N[C@@H](Cc4c[nH]c5ccccc45)C(=O)N[C@@H](C)C(=O)N[C@@H](CCSC)C(=O)N[C@@H](CCCNC(=N)N)C(=O)N[C@@H](CCCCN)C(=O)N2)NC(=O)[C@H](CSSC[C@@H](C(=O)N[C@@H](CCCCN)C(=O)N[C@@H](Cc2ccc(O)cc2)C(=O)N[C@H](C(=O)N[C@@H](Cc2ccccc2)C(N)=O)C(C)C)NC(=O)[C@H](Cc2c[nH]c4ccccc24)NC(=O)[C@H](CCCCN)NC(=O)[C@H](Cc2c[nH]cn2)NC(=O)[C@H]([C@@H](C)O)NC(=O)[C@H](CCCNC(=N)N)NC(=O)[C@H](CO)NC3=O)NC(=O)[C@H](CCCCN)NC(=O)[C@H](CC(=O)O)NC(=O)[C@H](CC(N)=O)NC(=O)[C@H](CC(=O)O)NC(=O)[C@@H]2CCCN2C1=O [compound 424] (H-DCLWAMRKCIPDNDKCCRPNLVCSRTHKWCKYVF-NH2; disulfide 2-17, 9-23, 16-30) | > 5 µM | 1.17 µM | 0.49 µM | 
8 | CC[C@H](C)[C@@H]1NC(=O)[C@@H]2CSSC[C@@H]3NC(=O)[C@H](C(C)C)NC(=O)[C@H](CC(C)C)NC(=O)[C@H](CC(N)=O)NC(=O)[C@@H]4CCCN4C(=O)[C@H](CCCNC(=N)N)NC(=O)[C@H](CSSC[C@H](NC(=O)[C@@H](N)CC(=O)O)C(=O)N[C@@H](CC(C)C)C(=O)NCC(=O)N[C@@H](Cc4ccccc4)C(=O)N[C@@H](CCSC)C(=O)N[C@@H](CCCNC(=N)N)C(=O)N[C@@H](CCCCN)C(=O)N2)NC(=O)[C@H](CSSC[C@@H](C(=O)N[C@@H](CCCCN)C(=O)N[C@@H](Cc2ccc(O)cc2)C(=O)N[C@H](C(=O)N[C@@H](Cc2ccccc2)C(N)=O)C(C)C)NC(=O)[C@H](Cc2c[nH]c4ccccc24)NC(=O)[C@H](CCCCN)NC(=O)[C@H](CCCNC(=N)N)NC(=O)[C@H]([C@@H](C)O)NC(=O)[C@H](CCCNC(=N)N)NC(=O)[C@H](CO)NC3=O)NC(=O)[C@H](CCCCN)NC(=O)[C@H](CC(=O)O)NC(=O)[C@H](CC(N)=O)NC(=O)[C@H](CC(=O)O)NC(=O)[C@@H]2CCCN2C1=O [compound 71] (H-DCLGFMRKCIPDNDKCCRPNLVCSRTRKWCKYVF-NH2; disulfide 2-17, 9-23, 16-30) |  |  |  | IC50 (hNav1.5; Table 23, use, […]): 5.22 µM; IC50 (hNav1.3; Table 23, use, […]): 0.51 µM; IC50 (hNav1.7): 0.51 µM
